The text below walks through data of patent US10130615B2, “Benzomorphan analogs and the use thereof” (priority 2014, dated 2018).

In experiment [1] the target is T1, μ-opioid receptor (Homo sapiens, UniProt P35372). Kind of experiment: biochemical. As to conditions: HEK-293 or CHO cells; for EC50: read-out: GTPγS μ EC50; for Emax: relative to DAMGO, read-out: GTPγS μ Emax. Also noted: purchased Perkin Elmer, Shelton, Conn; host or cells: HEK-293 or CHO.
Experiment [2] deals with T1, μ-opioid receptor. The experiment is described as follows: cell-based. Also noted: purchased Perkin Elmer, Shelton, Conn. Conditions: U2OS cells; for EC50: read-out: β-Arr2 μ EC50; for Emax: read-out: β-Arr2 μ Emax.
In experiment [3] the target is T2, ORL-1 receptor (Homo sapiens, UniProt P41146).
T2 construct: host or cells: HEK-293
T2 sequence (P41146 whole entry): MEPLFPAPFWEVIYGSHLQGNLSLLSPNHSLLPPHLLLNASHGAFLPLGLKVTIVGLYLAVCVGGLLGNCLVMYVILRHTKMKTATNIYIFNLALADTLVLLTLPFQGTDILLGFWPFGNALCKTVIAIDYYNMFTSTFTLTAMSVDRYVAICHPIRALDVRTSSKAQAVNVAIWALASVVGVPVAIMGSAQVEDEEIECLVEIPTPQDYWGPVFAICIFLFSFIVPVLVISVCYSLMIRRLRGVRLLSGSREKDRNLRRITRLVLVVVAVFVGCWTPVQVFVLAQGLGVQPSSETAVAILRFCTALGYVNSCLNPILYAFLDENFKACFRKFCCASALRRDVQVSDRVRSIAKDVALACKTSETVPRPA
Kind of experiment: ORL-1 receptor radioligand binding assay ([3H]-nociceptin). Conditions: HEK-293 or CHO cells; read-out: Ki (nM) Opioid Receptor ORL-1. On the procedure: ORL-1 Receptor Binding Assay Procedure: Membranes from recombinant HEK-293 cells expressing the human opioid receptor-like receptor (ORL-1) (Perkin Elmer, Shelton, Conn.) were prepared by lysing cells in ice-cold hypotonic buffer (2.5 mM MgCl2, 50 mM HEPES, pH 7.4) (10 ml/10 cm dish) followed by homogenization with a tissue grinder/Teflon pestle. Membranes were collected by centrifugation at 30,000×g for 15 min at 4° C. and pellets resuspended in hypotonic buffer to a final concentration of 1-3 mg/ml. Protein concentrations were determined using the BioRad protein assay reagent with bovine serum albumen as standard. Aliquots of the ORL-1 receptor membranes were stored at −80° C.
Radioligand binding assays (screening and dose-displacement) used 0.1 nM [^3H]-nociceptin (Perkin Elmer, Shelton, Conn.; 87.7 Ci/mmole) with 12 μg membrane protein in a final volume of 500 μl binding buffer (10 mM MgCl2, 1 mM EDTA, 5% DMSO, 50 mM HEPES, pH 7.4). Non-specific binding was determined in the presence of […] unlabeled nociceptin (American Peptide Company). All reactions were performed in 96-deep well polypropylene plates for 1 h at room temperature. […] The data from screening and dose-displacement experiments were analyzed using Microsoft Excel and the curve fitting functions in GraphPad PRISM™, v. 3.0 or higher, respectively, or an in-house function for one-site competition curve-fitting.

The structures appear in SMILES notation.

T1 sequence (P35372 whole entry, species assumed): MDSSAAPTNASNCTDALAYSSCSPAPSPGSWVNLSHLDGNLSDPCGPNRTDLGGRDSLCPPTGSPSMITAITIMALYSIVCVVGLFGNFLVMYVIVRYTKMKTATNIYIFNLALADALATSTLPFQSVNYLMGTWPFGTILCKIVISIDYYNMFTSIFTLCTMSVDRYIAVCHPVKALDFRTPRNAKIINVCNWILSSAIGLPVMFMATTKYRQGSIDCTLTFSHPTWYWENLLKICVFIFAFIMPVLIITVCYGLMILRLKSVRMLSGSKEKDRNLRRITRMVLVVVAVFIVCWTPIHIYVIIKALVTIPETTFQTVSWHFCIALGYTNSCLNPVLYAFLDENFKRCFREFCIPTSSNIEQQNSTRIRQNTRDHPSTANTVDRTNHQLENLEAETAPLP

`C[C@H]1[C@H]2Cc3ccc(O)cc3C1(CCN[C@H]1C[C@H]3CCC[C@@H](C1)N3[C@@H]1C[C@@H]3CCCC[C@@H](C3)C1)CCN2C` [Compound 63, (2R,6R,11R)-6-(2-(((1R,3R,5S)-9-((1R,6S,8r)-bicyclo[4.3.1]decan-8-yl)-9-azabicyclo[3.3.1]nonan-3-yl)amino)-ethyl)-3,11-dimethyl-1,2,3,4,5,6-hexahydro-2,6-methanobenzo[d]azocin-8-ol]: the figures for the EC50 in experiment [1] and in experiment [2] were 0.00243 ± 0.00067 µM and 0.00123 ± 0.00031 µM, respectively. Further, the Emax turned out to be 74.7 ± 2.4% in experiment [1] and 21.8 ± 1.31% in experiment [2]. Moreover, the inhibitory constant (Ki) in experiment [3] came out at 125 ± 24.2 nM.

Take `C[C@H]1[C@H]2Cc3ccc(O)cc3C1(CCN[C@H]1C[C@H]3CCC[C@@H](C1)N3CC[C@@H]1CC[C@H]3C[C@@H]1C3(C)C)CCN2C` [Compound 64, (2R,6R,11R)-6-(2-(((1R,3S,5S)-9-(2-((1S,2S,5S)-6,6-dimethylbicyclo-[3.1.1]heptan-2-yl)ethyl)-9-azabicyclo-[3.3.1]nonan-3-yl)amino)ethyl)-3,11-dimethyl-1,2,3,4,5,6-hexahydro-2,6-methanobenzo[d]azocin-8-ol]: in experiment [1], the EC50 is 0.0196 ± 0.00519 µM and the Emax amounted to 43.5 ± 2.96%. In experiment [2], the concentration for a half-maximal effect (EC50) was 7.45 ± 0.929 µM and the Emax came out at 51.8 ± 7.76%. The inhibition constant (Ki) in experiment [3] turned out to be 563 ± 97.5 nM.
